US20040161757A1, “Use of acetyl-coa carboxylase for identifying compounds that have an insecticidal effect” (priority 2000, published 2004)

Tested on: peach aphid Myzus persicae
Assay: Impairment of lipid neogenesis: 14C-acetate feeding by the sachet method, lipid extract separated by TLC
Type: in vivo
Excerpt: Peach aphid Myzus persicae larvae or adults were fed for two days with nutrient solutions with and without one of the identified ACCase inhibitors, using the sachet method (Nauen et al. 1996).
Thereafter, the animals were collected and homogenized in organic solvent using a pestle and mortar. The organic phase was cleansed of water-soluble constituents by repeatedly extracting it by shaking with aqueous solution, and the solvent was then evaporated. The pellet which remained was taken up in a little solvent and separated by thin-layer chromatography (TLC). The lipids which were separated were stained with amido black. ^14C-acetate which was incorporated into the lipids was detected by autoradiography after an exposure time of 2-3 days. To quantify the ^14C-incorporation into lipids, the bands in question were scraped out after staining, dissolved, and the activity was determined in a scintillation counter. […] Thus, no de novo lipid synthesis from acetate has taken place. […] It can be seen clearly that increasing inhibitor concentrations halt the de-novo lipid biosynthesis.
The mobile phase used for the TLC chromatography was n-hexane: diethyl ether: glacial acetic acid (60:45:1).

COC1CCC2(CC1)NC(=O)C(c1c(C)cc(C)c(C)c1C)=C2O (centres unmarked) [I-A, 4-hydroxy-8-methoxy-3-(2,3,4,6-tetramethylphenyl)-1-azaspiro[4,5]dec-32-en-2-one]
radiolabeled 14C-acetate incorporated into lipids during de-novo synthesis (autoradiograph of TLC plate) (fed for two days, exposure time 2-3 days, FIG. 1b, treated vs control aphids): no labeled lipids are present | lipid composition and lipid content (lipid status after acetate feeding, TLC stained with amido black) (larvae or adults fed for two days with nutrient solution with vs without active ingredient, FIG. 1a lanes 4-6 vs 1-3): No significant differences
